In paper PMC9093036, “Discovery of METTL3 Small Molecule Inhibitors by Virtual Screening of Natural Products” (Frontiers in Pharmacology, 2022):

Target: T1, METTL3 (Homo sapiens, UniProt Q86U44)
T1 construct: METTL3-METTL14 complex (wild type); with METTL14
Experiment: in vitro methyltransferase assay with omission of components, m6A by LC-MS/MS
Type: biochemical
Text: in vitro methyltransferase assay with omission of components, m6A by LC-MS/MS on METTL3 | METTL[…]TL14 (wild type), SAM, and RNA are essential for m^6A formation

T1 sequence (Q86U44 2-580): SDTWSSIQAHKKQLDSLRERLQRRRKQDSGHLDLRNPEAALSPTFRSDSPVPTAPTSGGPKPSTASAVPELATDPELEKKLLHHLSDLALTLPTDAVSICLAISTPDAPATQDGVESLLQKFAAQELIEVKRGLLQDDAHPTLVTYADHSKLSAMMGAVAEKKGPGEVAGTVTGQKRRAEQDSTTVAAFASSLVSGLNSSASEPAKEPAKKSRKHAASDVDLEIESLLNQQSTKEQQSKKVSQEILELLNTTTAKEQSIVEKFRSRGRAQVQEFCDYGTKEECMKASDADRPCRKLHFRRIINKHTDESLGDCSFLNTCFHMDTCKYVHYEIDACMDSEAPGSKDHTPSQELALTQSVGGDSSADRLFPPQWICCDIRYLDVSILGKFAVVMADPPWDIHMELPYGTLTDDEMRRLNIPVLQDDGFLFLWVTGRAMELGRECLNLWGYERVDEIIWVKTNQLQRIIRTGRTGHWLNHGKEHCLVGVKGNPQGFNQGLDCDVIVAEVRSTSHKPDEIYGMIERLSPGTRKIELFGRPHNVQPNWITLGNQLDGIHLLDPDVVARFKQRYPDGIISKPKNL
T1 sequence (Q9HCE5 whole entry partner): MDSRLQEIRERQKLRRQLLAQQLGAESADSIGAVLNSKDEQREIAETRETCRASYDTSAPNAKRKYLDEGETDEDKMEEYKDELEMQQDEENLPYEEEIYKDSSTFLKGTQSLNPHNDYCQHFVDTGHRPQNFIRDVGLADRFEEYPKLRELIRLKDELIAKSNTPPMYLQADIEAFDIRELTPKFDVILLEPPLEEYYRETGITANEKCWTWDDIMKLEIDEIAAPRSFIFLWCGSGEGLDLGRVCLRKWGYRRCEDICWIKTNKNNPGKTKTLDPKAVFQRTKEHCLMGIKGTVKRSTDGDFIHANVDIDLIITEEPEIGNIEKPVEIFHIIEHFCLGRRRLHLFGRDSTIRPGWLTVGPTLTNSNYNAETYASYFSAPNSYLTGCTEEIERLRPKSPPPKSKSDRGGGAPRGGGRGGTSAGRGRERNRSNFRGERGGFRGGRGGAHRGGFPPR

With `C[S+](CC[C@H](N)C(=O)[O-])C[C@H]1O[C@@H](n2cnc3c(N)ncnc32)[C@H](O)[C@@H]1O` (stereo partly shown) [SAM] the “components essential for m6A formation” value was “METTL3-METTL14 (wild type), SAM, and RNA are essential for m^6A formation”.
